Experimental data from publication PMC7369893, “Antimicrobial Peptides Display Strong Synergy with Vancomycin Against Vancomycin-Resistant E. faecium, S. aureus, and Wild-Type E. coli” (International Journal of Molecular Sciences, 2020).
Converted amounts (≈) assume the structure as drawn. Positions of bridges follow the written chain, without caps; N, C: chain ends. Non-standard residues stand in square brackets, D forms with d. Residues, ends and D or L forms follow the SMILES beside them. No end group written: not given here. Bip = N[C@@H](Cc1ccc(-c2ccccc2)cc1)C(=O)O; 2Nal = N[C@@H](Cc1ccc2ccccc2c1)C(=O)O

Assays:
[1] = test system: E. faecium BCRC 15B0132 (VRE); assay: microbe, parasite or virus in culture; format: cell-based, Enterococcus faecium; details: BCRC 15, 16 h
Procedure: (§1) The antibacterial activities of peptides were determined by the standard broth microdilution method according to the guidelines of the Clinical and Laboratory Standards Institute (CLSI). Briefly, E. coli ATCC 25922 were incubated in MHB, and E. faecium BCRC 15B0132, VISA and VRSA strains were incubated in TSB overnight at 37 °C. The cell cultures were regrown to the mid-log phase and subsequently diluted to a final concentration of 5 × 10^5 CFU/mL. The 1 µL peptides or antibiotic were loaded into each well at the final concentration of 64, 32, 16, 8, 4, 2, 1, and 0.5 µg/mL, then loaded 99 µL diluted microbes into each well of polypropylene 96-well plate. After 16 h of incubation at 37 °C, the turbidity at OD600 was measured by the microplate reader. The minimal inhibitory concentration (MIC) value was defined as the lowest concentration of peptide or antibiotic, which inhibited the 90% visible growth of bacteria. All experiments were repeated three times independently.

[2] = test system: Vancomycin-intermediate S. aureus 01 (VISA01); assay: microbe, parasite or virus in culture; format: cell-based, Staphylococcus aureus; details: Vancomycin-intermediate 01 (VISA01, 16 h)
Procedure: as §1

[3] = test system: Vancomycin-intermediate S. aureus 02 (VISA02); assay: microbe, parasite or virus in culture; format: cell-based, Staphylococcus aureus; details: Vancomycin-intermediate 02 (VISA02, 16 h)
Procedure: as §1

[4] = test system: Vancomycin-intermediate S. aureus 03 (VISA03); assay: microbe, parasite or virus in culture; format: cell-based, Staphylococcus aureus; details: Vancomycin-intermediate 03 (VISA03, 16 h)
Procedure: as §1

[5] = test system: Vancomycin-resistant S. aureus 01 (VRSA01); assay: microbe, parasite or virus in culture; format: cell-based, Staphylococcus aureus; details: VRSA01 (induced from VISA01 by serial passage); CLSI broth microdilution, TSB, 5 × 10^5 CFU/mL, 16 h, 37 °C; triplicate
Procedure: (§2) For the purpose of inducing vancomycin-resistant Staphylococcus aureus (VRSA), the VISA01, VISA02, and VISA03 bacteria were incubated overnight in culture medium, and transferring 50 µL of bacteria to 5 mL of fresh medium containing 2 μg/mL of vancomycin then incubated overnight. The bacteria were transferred to new tube with doubling vancomycin concentration and then incubated overnight again. The concentration of vancomycin during serial passage was 2, 4, 8, 16, and 32 µg/mL. The procedure was repeated until meeting the final concentration of 32 µg/mL. After serial passage, the cell resistance was confirmed by using an MIC assay.
as §1

[6] = test system: Vancomycin-resistant S. aureus 02 (VRSA02); assay: microbe, parasite or virus in culture; format: cell-based, Staphylococcus aureus; details: VRSA02 (induced from VISA02 by serial passage); CLSI broth microdilution, TSB, 5 × 10^5 CFU/mL, 16 h, 37 °C; triplicate
Procedure: as §2, §1

[7] = test system: Vancomycin-resistant S. aureus 03 (VRSA03); assay: microbe, parasite or virus in culture; format: cell-based, Staphylococcus aureus; details: VRSA03 (induced from VISA03 by serial passage); CLSI broth microdilution, TSB, 5 × 10^5 CFU/mL, 16 h, 37 °C; triplicate
Procedure: as §2, §1

E. coli ATCC 25922 [8] = assay: microbe, parasite or virus in culture; format: cell-based, Escherichia coli; details: ATCC 25922, 16 h
Procedure: as §1

[9] = test system: VRE, VISA, VRSA, and E. coli strains; assay: microbe, parasite or virus in culture; format: cell-based; details: all strains studied (VRE, VISA 01-03, VRSA 01-03, E. coli), Table 2
Procedure: as §1

[10] = test system: VRE, VISA, VRSA and E. coli strains; assay: Checkerboard assay, summary statements of the text over the strain panel; format: cell-based; details: peptide at ¼ ×MIC combined with vancomycin, all strains studied
Procedure: The synergistic effects of peptides in combination with vancomycin were investigated by checkerboard assay with slight modification. The peptides were fixed concentration at ¼ × MIC, then in combination with antibiotics at various concentrations in each well of 96-well plate. Then the peptide/antibiotic were mixed with inoculum (5 × 10^5 CFU/mL) and incubated at 37 °C for 16 h. The fractional inhibitory concentration (FIC) index was calculated as follows: FIC index = (MIC of drug A in combination/MIC of drug A alone) + (MIC of drug B in combination/MIC of drug B alone). An FIC index of ≤ 0.5 was defined as synergy, indifference was defined as an FIC index of 0.5 < FICI ≤ 4, antagonism was defined as an FIC index of > 4. The experiments were performed in triplicate.

[11] = test system: E. faecium BCRC 15B0132 (VRE); assay: Time killing assay; format: cell-based, Enterococcus faecium; details: 5 × 10^5 CFU/mL, 1 × MIC, 0.5-24 h, 37 °C, triplicate
Procedure: (§3) The bactericidal activities of vancomycin, P-113, Phe-P-113, Bip-P-113, Dip-P-113, and Nal-P-113 against E. faecium BCRC 15B0132 (VRE) and E. coli ATCC 25922 were assessed by the time-kill analysis. The cells were grown overnight in TSB or MHB at 37 °C with shaking, and then fresh TSB or MHB was inoculated for growth to mid-logarithmic phase. Bacteria (5 × 10^5 CFU/mL) were treated with 1 × MIC vancomycin, P-113, Phe-P-113, Bip-P-113, Dip-P-113, and Nal-P-113 for 0.5, 1, 2, 4, 6, 10, and 24 h at 37 °C. Bacteria without peptides and vancomycin served as a control. Aliquots were removed at each time points, and 10-fold serial dilutions of the aliquot were plated onto the Müller-Hinton agar. The numbers of CFU were counted after 24 h of incubation at 37 °C. The detection limit for the colony counts was 2log10 CFU/mL.

E. faecium BCRC 15B0132 = assay: Uptake of BODIPY-labeled vancomycin, confocal laser scanning microscopy; format: cell-based, Enterococcus faecium; details: VRE 10^7 CFU/mL, 0.5 ×MIC peptide 30 min at 37 °C, then BODIPY-labeled vancomycin (2 μg/mL) 30 min; mean fluorescence intensity
Procedure: (§4) The fluorescence experiments were performed with slight modification as described previously. Briefly, the bacteria (10^7 CFU/mL) were incubated with 0.5 ×MIC antimicrobial peptides for 30 min and then treated with BODIPY-labeled vancomycin (2 μg/mL) for 30 min. Samples treated with BODIPY-labeled vancomycin only served as a control. After incubation, bacteria were centrifuged at 8000× g for 5 min, washed three times with PBS to remove unbinding fluorescence dye, and resuspended by PBS. The resuspended solution were loaded on the glass slides (Polysine™, Thermo Fisher Scientific, Waltham, MA, USA) and visualized under confocal laser scanning microscope (LSM 510 META, Carl Zeiss, Jena, Thüringen, Germany) equipped with a 64× oil objective lens (Carl Zeiss, Jena, Thüringen, Germany).

E. coli ATCC 25922 [12] = assay: as above; format: cell-based, Escherichia coli; details: E. coli 10^7 CFU/mL, 0.5 ×MIC peptide 30 min at 37 °C, then BODIPY-labeled vancomycin (2 μg/mL) 30 min; mean fluorescence intensity
Procedure: as §4

[13] = POPC:POPG (3:1, mol/mol) and POPC:LPS (4:1, mol/mol) LUVs; cited from earlier work
Text: Dathe and coauthors used POPC:LPS as model prokaryotic membranes to study peptide activity against E. coli and the role of LPS [20]. Previously, we have evaluated the membrane-permeability of P-113 and its derivatives by measuring the release of calcein from various phospholipid vesicles such as POPC:POPG (3:1, mol/mol) LUVs (mimic the anionic bacterial membrane) and POPC:LPS (4:1, mol/mol) LUVs (served as surrogates of Gram-negative bacterial membranes that contain LPS). […] Nal- ...

human fibroblasts (HFW) = details: peptide >25 µg/mL; cited from earlier work
mice = details: mouse, in vivo, 10 mg/kg; cited from earlier work
[14] = among the P-113 derivatives; cited from earlier work
Text: The two terminal β-naphthylalanine residues of S1-Nal-Nal (Ac-[…]alNal-NH2) were inserted into the hydrophobic lipid A motif of LPS micelles. […] Similarly, derivatives with phenylalanine-(Phe-P-113), β-naphthylalanine- (Nal-P-1 ...

E. coli ATCC 25922 [15] = assay: Time killing assay; format: cell-based, Escherichia coli; details: E. coli ATCC 25922, 5 × 10^5 CFU/mL, 1 × MIC, 0.5-24 h, 37 °C; triplicate
Procedure: as §3

Gram-negative bacteria = details: cited from earlier work
Text: CLP-19 was derived from the core domain of Limulus anti-LPS factor (LALF; amino acids 31–52) with a sequence of ([…]) and a head to tail disulfide bond. It is likely that the positive charges of CLP-19 can interact with the negative charges of LPS and the hydrophobic part of CLP-19 can bind to the f ...

| Molecule | MIC [1] [µg/mL] | MIC [2] [µg/mL] | MIC [3] [µg/mL] | MIC [4] [µg/mL] | MIC [5] [µg/mL] | MIC [6] [µg/mL] | MIC [7] [µg/mL] | MIC (E. coli ATCC 25922 [8]) [µg/mL] | MICs against these bacterial strains [9] | synergy with vancomycin (interpretation of FICI) [10] | killing kinetics [11] | entry of BODIPY-labeled vancomycin into the bacteria (rank order) (E. faecium BCRC 15B0132) | entry of BODIPY-labeled vancomycin into the bacteria (rank order) (E. coli ATCC 25922 [12]) | calcein leakage from LUVs [13] | cell death (MTT) (human fibroblasts (HFW)) | adverse effect in mice (mice) | serum proteolytic stability [14] | killing kinetics (E. coli ATCC 25922 [15]) | antibiotic-induced release of LPS (Gram-negative bacteria) |
| --- | --- | --- | --- | --- | --- | --- | --- | --- | --- | --- | --- | --- | --- | --- | --- | --- | --- | --- | --- |
| CC(=O)N[C@@H](C)C(=O)N[C@@H](CCCCN)C(=O)N[C@@H](CCCNC(=N)N)C(=O)N[C@@H](Cc1ccc(-c2ccccc2)cc1)C(=O)N[C@@H](Cc1ccc(-c2ccccc2)cc1)C(=O)NCC(=O)N[C@@H](Cc1ccc(O)cc1)C(=O)N[C@@H](CCCCN)C(=O)N[C@@H](CCCNC(=N)N)C(=O)N[C@@H](CCCCN)C(=O)N[C@@H](Cc1ccccc1)C(=O)N[C@@H](Cc1ccc(-c2ccccc2)cc1)C(N)=O [Bip-P-113] (Ac-AKR[Bip][Bip]GYKRKF[Bip]-NH2) | 4 (≈ 2.15 µM) | 16 (≈ 8.58 µM) | 16 (≈ 8.58 µM) | 8 (≈ 4.29 µM) | 16 (≈ 8.58 µM) | 16 (≈ 8.58 µM) | 8 (≈ 4.29 µM) | 32 (≈ 17.2 µM) | best MICs | best synergy with vancomycin against all of the bacterial strains tested | rapid bactericidal activity | Bip-P-113 = Nal-P-113 > Dip-P-113 > Phe-P-113 = P-113 | Bip-P-113 > Nal-P-113 > Dip-P-113 > Phe-P-113 = P-113 | strongest ability to induce calcein leakage | 10–20% | did not observe any adverse effect | enhanced | – | – |
| CC(=O)N[C@@H](C)C(=O)N[C@@H](CCCCN)C(=O)N[C@@H](CCCNC(=N)N)C(=O)N[C@@H](Cc1ccc2ccccc2c1)C(=O)N[C@@H](Cc1ccc2ccccc2c1)C(=O)NCC(=O)N[C@@H](Cc1ccc(O)cc1)C(=O)N[C@@H](CCCCN)C(=O)N[C@@H](CCCNC(=N)N)C(=O)N[C@@H](CCCCN)C(=O)N[C@@H](Cc1ccccc1)C(=O)N[C@@H](Cc1ccc2ccccc2c1)C(N)=O [Nal-P-113] (Ac-AKR[2Nal][2Nal]GYKRKF[2Nal]-NH2) | 4 (≈ 2.24 µM) | 8 (≈ 4.48 µM) | 8 (≈ 4.48 µM) | 8 (≈ 4.48 µM) | 8 (≈ 4.48 µM) | 8 (≈ 4.48 µM) | 16 (≈ 8.96 µM) | 32 (≈ 17.9 µM) | best MICs | synergistic effects against VRE, VISA 03, VRSA 01, VRSA 02, VRSA 03, and E. coli | rapid bactericidal activity | Bip-P-113 = Nal-P-113 > Dip-P-113 > Phe-P-113 = P-113 | Bip-P-113 > Nal-P-113 > Dip-P-113 > Phe-P-113 = P-113 | dose-dependent calcein leakage | 10–20% | – | – | fastest bactericidal activity | – |
| CHYRIKPTFRRLKWKYKGKFWC (disulfide 1-22 (inferred)) [CLP-19, antimicrobial peptide derived from the core domain of Limulus anti-LPS factor, with a disulfide bond] | – | – | – | – | – | – | – | – | – | – | – | – | – | – | – | – | – | – | reduce antibiotic-induced release of LPS |
